Laboratory results from patent US20240307350A1, “5-METHOXY-N,N-DIMETHYLTRYPTAMINE (5-MEO-DMT) FOR TREATING DEPRESSION” (GH RESEARCH IRELAND LIMITED, priority 2019, published 2024).

How the values were obtained:
[1] = tested on: patients with treatment-resistant major depressive disorder; assay: Clinical trial of inhaled 5-MeO-DMT in treatment-resistant major depressive disorder: safety and tolerability; type: in vivo, human; conditions: for Reported adverse events: 12 mg inhaled
Experimental: (§1) A clinical trial was performed in which 5-MeO-DMT free base (purity not less than 99%) was administered to patients with treatment-resistant major depressive disorder (TRD). The objectives of the study were to assess the safety and tolerability, the dose-related psychedelic effects and the effects on various measures of depression of single-day dosing of 5-MeO-DMT. The trial was reviewed and approved by the relevant national competent authority and local medical ethics committee. Patients recruited into the trial had to meet the Diagnostic and Statistical Manual of Mental Disorders-Fifth Edition (DSM-5) diagnostic criteria for single-episode or recurrent major depressive disorder and had to be treatment-resistant, both aspects as evaluated by a psychiatrist or registered psychologist. Patients who were using any psychoactive medication or substance (such as anti-depressive medication) had to discontinue such medication or substance and had to observe a wash-out period before the 5-MeO-DMT administration. On the administration day, a single dose of 12 mg 5-MeO-DMT was administered to the patients via a single inhalation as described in Example 1A. Patients were closely monitored for 3.5 hours after administration, with additional follow-up visits 1 day and 7 days after dosing. Various safety related measures (e.g., adverse event reporting, safety laboratory analyses, vital signs, electrocardiogram (ECG), Clinician Administered Dissociative States Scale (CADSS), Psychomotor Vigilance Test (PVT), Digit Symbol Substitution Test (DSST)), measures of the intensity of the psychedelic effects (e.g., Peak Psychedelic Experience Questionnaire (PPEQ), Altered States of Consciousness (ASC) Questionnaire, Mystical Experience Questionnaire (MEQ30), subjective description of the psychedelic experience), measures of depression severity (Montgomery-Åsberg Depression Rating Scale (MADRS), Patient's Global Impression of Severity scale (PGI-S), Patient's Global Impression of Improvement scale (PGI-I)), and additional psychological measures (e.g., Columbia-Suicide Severity Rating Scale (C-SSRS), Brief Psychiatric Rating Scale (BPRS)) were recorded at different time points. Psychological support via a psychologist and/or psychiatrist was available to the patients throughout the study, but no specific psychotherapy was applied, and no additional psychoactive medication was provided.
Two patients with major depressive disorder diagnosed by a psychiatrist according to DSM-5 diagnostic criteria were recruited into the study (Example 2, Table 1). The patients were considered treatment-resistant because they had not shown adequate improvement to at least two adequate courses of pharmacological therapy in the current episode of depression.

[2] = tested on: patients with treatment-resistant major depressive disorder; assay: Clinical trial in treatment-resistant major depressive disorder: intensity of the psychedelic effects (MEQ30, ASC, PPEQ); type: in vivo, human; conditions: for ASC Oceanic Boundlessness (0-2700) / MEQ30 Ineffability (0 to 5) / MEQ30 Mystical (0 to 5) / MEQ30 Positive Mood (0 to 5) / MEQ30 Total Score Average (0 to 5) / MEQ30 Transcendence Time/Space (0 to 5) / PPEQ Intensity (0-100) / PPEQ Loss of Control (0-100) / PPEQ Profoundness (0-100) / PPEQ Total Score (0-100) / PPEQ PPE achieved / MEQ30 PPE achieved / ASC PPE achieved: 12 mg inhaled; for PPEQ PPE achieved: PPEQ Total Score of at least 75; for MEQ30 PPE achieved: at least 60% of the maximum possible score in each of the four subscales; for ASC PPE achieved: at least 60% of the maximum possible score of Oceanic Boundlessness
Excerpt: The occurrence of a “peak psychedelic experience” in a patient can be identified through achievement of at least 60% of the maximum possible score in each of the four subscales (mystical, positive mood, transcendence of time and space, and ineffability) of the 30-item revised Mystical Experience Questionnaire (MEQ30) (as described in Barrett F S, J Psychopharmacol. 2015; 29(11):1182-90; Score items shown in Example 4).
The occurrence of a “peak psychedelic experience” in a patient can also be identified through achievement of at least 60% of the maximum possible score of the Oceanic Boundlessness (OBN) dimension of the Altered States of Consciousness (ASC) questionnaire (as described in Roseman L et al., Front Pharmacol. 2018; 8:974).
The occurrence of a “peak psychedelic experience” in a patient can also be identified through achievement of a score of at least 75 in the Peak Psychedelic Experience Questionnaire (PPEQ) Total Score, which averages answers scored by the patient from 0 to 100 for the following three questions: 1. How intense was the experience; 2. To what extent did you lose control; 3. How profound (i.e. deep and significant) was the experience?
as §1
The score for each individual subscale is computed by calculating the average score (from the scale of 0 to 5) for the phenomena belonging to the subscale as listed below.
The MEQ30-total score is computed by taking the average response to all phenomena. […]

[3] = single dose of 12 mg via inhalation, both patients

COc1ccc2[nH]cc(CCN(C)C)c2c1 [5-MeO-DMT, 5-methoxy-N,N-dimethyltryptamine]
ECG, safety laboratory analyses, CADSS and cognitive tests (PVT, DSST) ([1]; ECG at 3 hours, laboratory at 3 hours and 7 days, CADSS at 3 hours, 1 day and 7 days, PVT, DSST at 1 day and 7 days): unremarkable | Reported adverse events ([1]; Patient 1, Administration day, mild, resolved spontaneously): Dizziness | Reported adverse events ([1]; Patient 1, Day 1, mild, resolved spontaneously): Headache, Flashback | Reported adverse events ([1]; Patient 1, Day 7, mild, resolved spontaneously): Headache | Reported adverse events ([1]; Patient 2, Administration day): None reported | Reported adverse events ([1]; Patient 2, Day 1, mild, resolved spontaneously): Headache | Reported adverse events ([1]; Patient 2, Day 7): None reported | changes in vital parameters ([1]; shortly after administration of 12 mg, both patients): temporary, not clinically relevant increase in heart rate and blood pressure | tolerability of the inhalation procedure [1, 3]: well tolerated with no inhalation-related adverse events | ASC Oceanic Boundlessness (0-2700) ([2]; Patient 1): 1696 | MEQ30 Ineffability (0 to 5) ([2]; Patient 1): 4.7 | MEQ30 Mystical (0 to 5) ([2]; Patient 1): 3.5 | MEQ30 Positive Mood (0 to 5) ([2]; Patient 1): 4.5 | MEQ30 Total Score Average (0 to 5) ([2]; Patient 1): 3.8 | MEQ30 Transcendence Time/Space (0 to 5) ([2]; Patient 1): 3.7 | PPEQ Intensity (0-100) ([2]; Patient 1): 94 | PPEQ Loss of Control (0-100) ([2]; Patient 1): 45 | PPEQ Profoundness (0-100) ([2]; Patient 1): 87 | PPEQ Total Score (0-100) ([2]; Patient 1): 75.3 | PPEQ PPE achieved ([2]; Patient 1): Yes | MEQ30 PPE achieved ([2]; Patient 1): Yes | ASC PPE achieved ([2]; Patient 1): Yes | ASC Oceanic Boundlessness (0-2700) ([2]; Patient 2): 1297 | MEQ30 Ineffability (0 to 5) ([2]; Patient 2): 3.3 | MEQ30 Mystical (0 to 5) ([2]; Patient 2): 3.1 | MEQ30 Positive Mood (0 to 5) ([2]; Patient 2): 4.0 | MEQ30 Total Score Average (0 to 5) ([2]; Patient 2): 3.4 | MEQ30 Transcendence Time/Space (0 to 5) ([2]; Patient 2): 3.5 | PPEQ Intensity (0-100) ([2]; Patient 2): 100 | PPEQ Loss of Control (0-100) ([2]; Patient 2): 58 | PPEQ Profoundness (0-100) ([2]; Patient 2): 80 | PPEQ Total Score (0-100) ([2]; Patient 2): 79.3 | PPEQ PPE achieved ([2]; Patient 2): Yes | MEQ30 PPE achieved ([2]; Patient 2): Yes | ASC PPE achieved ([2]; Patient 2): No | duration of the psychedelic experience as judged by an external observer ([2]; patient 1, single dose of 12 mg via inhalation): 16 min | duration of the psychedelic experience as judged by an external observer ([2]; patient 2, single dose of 12 mg via inhalation): 40 min | first psychedelic symptoms after the inhalation (onset) [2, 3]: within a few seconds
